Drawing on ChEMBL document CHEMBL4177622, “Enhanced radical scavenging activity of a procyanidin B3 analogue comprised of a dimer of planar catechin” (Bioorg Med Chem Lett, 2017), this text covers K for 5 compounds.

The experiment can be described thus: Antioxidant activity assessed as second order rate constant for galvinoxyl radical scavenging activity in presence of deaerated conditions by UV-Vis spectrophotometric analysis. Format: functional.
With `Oc1cc(O)c2c(c1)O[C@H](c1ccc(O)c(O)c1)[C@@H](O)[C@@H]2c1c(O)cc(O)c2c1O[C@H](c1ccc(O)c(O)c1)[C@@H](O)C2`, the K is 1 ×10² /mol/s.

With `CC1(C)O[C@H]2Cc3c(O)cc(O)c([C@@H]4c5c(O)cc(O)cc5O[C@H](c5ccc(O)c(O)c5)[C@H]4O)c3O[C@@H]2c2cc(O)c(O)cc21`, the K is 1.89 ×10² /mol/s.

As to `CC1(C)O[C@H]2[C@H](c3c(O)cc(O)c4c3O[C@@H]3c5cc(O)c(O)cc5C(C)(C)O[C@H]3C4)c3c(O)cc(O)cc3O[C@@H]2c2cc(O)c(O)cc21`, the K was found to be 2.85 ×10² /mol/s.

For the compound `CC1(C)O[C@H]2Cc3c(O)cc(O)cc3O[C@@H]2c2cc(O)c(O)cc21`, the K came out at 1.5 ×10² /mol/s.

Take `Oc1cc(O)c2c(c1)O[C@H](c1ccc(O)c(O)c1)[C@@H](O)C2`: the K was 2.6 ×10¹ /mol/s.
